Measurements: patent US20260365670A1, “EGFR INHIBITORS AND USES THEREOF” (DIZAL (JIANGSU) PHARMACEUTICAL CO., LTD., priority 2022, published 2026)
Read-outs that look alike come from different tables or passages of the source.

Columns and labels:
EGFR wild type = molecular target: T1, EGFR wild type (Homo sapiens, UniProt P00533); experiment: Inhibition of EGFR wild type biochemical enzymatic activity (HTRF); details: EGFR WT, 1 mM ATP, 1 h, room temperature, read-out: IC50 (nM) @WT
T1 construct: purchased Carna Bio
How it was run: (§1)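 Using a high ATP level (1 mM), wild-type and mutant EGFR enzymes were incubated 1 h at room temperature with inhibitor and 1 μM biotinylated TK substrate. Phosphorylation was quantified as the 665/615 nm HTRF ratio. IC50s were derived by logistic fitting.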

EGFR L858R = molecular target: T2, EGFR L858R (Homo sapiens, UniProt P00533, L858R); experiment: Inhibition of EGFR L858R biochemical enzymatic activity (HTRF); details: 1 mM ATP, 1 h, room temperature, read-out: IC50 (nM) @L858R
T2 construct: purchased Carna Bio
How it was run: as §1

EGFR L858R/T790M = molecular target: T3, EGFR L858R/T790M (Homo sapiens, UniProt P00533, L858R/T790M); experiment: Inhibition of EGFR L858R/T790M biochemical enzymatic activity (HTRF); details: EGFR L858R-T790M, 1 mM ATP, 1 h, room temperature, read-out: IC50 (nM) @L858R-T790M
T3 construct: purchased Carna Bio
How it was run: as §1

EGFR Exon19Del = molecular target: T4, EGFR Exon19Del (Homo sapiens, UniProt P00533, DEL746-750); experiment: Inhibition of EGFR Exon19Del biochemical enzymatic activity (HTRF); details: EGFR Del19, 1 mM ATP, 1 h, room temperature, read-out: IC50 @Del19
T4 construct: purchased Carna Bio
How it was run: as §1

EGFR Exon19Del/T790M = molecular target: T5, EGFR Exon19Del/T790M (Homo sapiens, UniProt P00533, DEL746-750/T790M); experiment: Inhibition of EGFR Exon19Del/T790M biochemical enzymatic activity (HTRF); details: EGFR Del19-T790M, 1 mM ATP, 1 h, room temperature, read-out: IC50 (nM) @Del19-T790M
T5 construct: purchased Carna Bio
How it was run: as §1

EGFR[T790M/C797S/L858R] = molecular target: T6, EGFR[T790M/C797S/L858R] (Homo sapiens, UniProt P00533, C797S/L858R/T790M); experiment: Inhibition of EGFR[T790M/C797S/L858R] biochemical enzymatic activity (HTRF); details: EGFR T790M-C797S-L858R, 1 mM ATP, 1 h, room temperature, read-out: IC50 (nM) @T790M- C797S - L858R
T6 construct: purchased Carna Bio
How it was run: as §1

[1] = molecular target: T7, EGFR[T790M/C797S/d746-750] (Homo sapiens, UniProt P00533, C797S/DEL746-750/T790M); experiment: Inhibition of EGFR[T790M/C797S/d746-750] biochemical enzymatic activity (HTRF); details: EGFR T790M-C797S-Del19, 1 mM ATP, 1 h, room temperature, read-out: IC50 (nM) @T790M - C797S - Del19
T7 construct: purchased Carna Bio
How it was run: as §1

EGFR (d746-750 C797S) = molecular target: T8, EGFR (d746-750 C797S) (Homo sapiens, UniProt P00533, C797S/DEL746-750); experiment: Inhibition of EGFR (d746-750 C797S) biochemical enzymatic activity (HTRF); details: EGFR Del19-C797S, 1 mM ATP, 1 h, room temperature, read-out: IC50 (nM) @Del19-C797S
T8 construct: purchased signalchem
How it was run: as §1

EGFR (C797S L858R) = molecular target: T9, EGFR (C797S L858R) (Homo sapiens, UniProt P00533, C797S/L858R); experiment: Inhibition of EGFR (C797S L858R) biochemical enzymatic activity (HTRF); details: EGFR L858-C797S, 1 mM ATP, 1 h, room temperature, read-out: IC50 (nM) @L858-C797S
T9 construct: purchased signalchem
How it was run: as §1

[2] = tested on: Ba/F3 cells expressing EGFR mutations; experiment: Cell proliferation assay, Ba/F3 cells expressing EGFR mutations (CellTiter-Glo, 72 hours); format: cell-based; details: CellTiter-Glo
How it was run: (§2)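 Cells are exposed to graded compound concentrations after overnight plating, using 500 PC-9 or 5000 Ba/F3 per well. Baseline-subtracted viability is compared with vehicle to give percent proliferation, then GI50.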

PC-9 = experiment: Cell proliferation assay, PC-9 cells (CellTiter-Glo, 72 hours); format: cell-based; details: PC9 cells, CellTiter-Glo, read-out: PC9 GI50
How it was run: as §2

A-431 = experiment: Cell proliferation GI50, A-431 cells (Table 6); format: cell-based
[3] = BaF3 cells, EGFR DEL19-C797S, read-out: DEL19-C797S/BaF3 GI50
[4] = BaF3 cells, EGFR DEL19-T790-C797S, read-out: DEL19-T790-C797S/BaF3 GI50
[5] = BaF3 cells, EGFR L858R, read-out: L858R/BaF3 GI50
[6] = BaF3 cells, EGFR L858R-C797S, read-out: L858R-C797S/BaF3 GI50
[7] = BaF3 cells, EGFR L858R-T790-C797S, read-out: L858R-T790-C797S/BaF3 GI50
[8] = BaF3 cells, EGFR L858R-T790M, read-out: L858R-T790M/BaF3 GI50
[9] = EGFR DEL19-T790M, read-out: DEL19-T790M GI50
[10] = Mus musculus, BaF3, 72 h, BaF3 cells, EGFR DEL19-C797S, read-out: DEL19-C797S/BaF3 GI50
[11] = Mus musculus, BaF3, 72 h, BaF3 cells, EGFR DEL19-T790-C797S, read-out: DEL19-T790-C797S/BaF3 GI50
[12] = Mus musculus, BaF3, 72 h, BaF3 cells, EGFR L858R, read-out: L858R/BaF3 GI50
[13] = Mus musculus, BaF3, 72 h, BaF3 cells, EGFR L858R-C797S, read-out: L858R-C797S/BaF3 GI50
[14] = Mus musculus, BaF3, 72 h, BaF3 cells, EGFR L858R-T790-C797S, read-out: L858R-T790-C797S/BaF3 GI50
[15] = Mus musculus, BaF3, 72 h, BaF3 cells, EGFR L858R-T790M, read-out: L858R-T790M/BaF3 GI50
[16] = Mus musculus, BaF3, 72 h, EGFR DEL19-T790M, read-out: DEL19-T790M GI50
[17] = Homo sapiens, A-431, A-431 cells

T7 sequence (P00533 with tags, fused parts or gaps DEL746-750/T790M/C797S limits assumed): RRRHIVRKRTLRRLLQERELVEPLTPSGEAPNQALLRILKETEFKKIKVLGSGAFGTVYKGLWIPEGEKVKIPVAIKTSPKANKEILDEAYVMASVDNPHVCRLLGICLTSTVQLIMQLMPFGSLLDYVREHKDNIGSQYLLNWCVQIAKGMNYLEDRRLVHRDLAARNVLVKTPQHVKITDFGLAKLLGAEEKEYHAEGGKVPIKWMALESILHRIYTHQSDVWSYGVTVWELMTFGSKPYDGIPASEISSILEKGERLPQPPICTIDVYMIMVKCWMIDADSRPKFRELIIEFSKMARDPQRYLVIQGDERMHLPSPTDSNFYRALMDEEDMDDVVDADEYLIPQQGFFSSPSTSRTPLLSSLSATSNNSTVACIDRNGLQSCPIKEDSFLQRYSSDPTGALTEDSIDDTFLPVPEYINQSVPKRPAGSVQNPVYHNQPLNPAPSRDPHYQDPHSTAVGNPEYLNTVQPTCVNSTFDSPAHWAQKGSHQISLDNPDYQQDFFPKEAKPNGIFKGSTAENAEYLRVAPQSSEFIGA
T3 sequence (P00533 25-1210 T790M/L858R): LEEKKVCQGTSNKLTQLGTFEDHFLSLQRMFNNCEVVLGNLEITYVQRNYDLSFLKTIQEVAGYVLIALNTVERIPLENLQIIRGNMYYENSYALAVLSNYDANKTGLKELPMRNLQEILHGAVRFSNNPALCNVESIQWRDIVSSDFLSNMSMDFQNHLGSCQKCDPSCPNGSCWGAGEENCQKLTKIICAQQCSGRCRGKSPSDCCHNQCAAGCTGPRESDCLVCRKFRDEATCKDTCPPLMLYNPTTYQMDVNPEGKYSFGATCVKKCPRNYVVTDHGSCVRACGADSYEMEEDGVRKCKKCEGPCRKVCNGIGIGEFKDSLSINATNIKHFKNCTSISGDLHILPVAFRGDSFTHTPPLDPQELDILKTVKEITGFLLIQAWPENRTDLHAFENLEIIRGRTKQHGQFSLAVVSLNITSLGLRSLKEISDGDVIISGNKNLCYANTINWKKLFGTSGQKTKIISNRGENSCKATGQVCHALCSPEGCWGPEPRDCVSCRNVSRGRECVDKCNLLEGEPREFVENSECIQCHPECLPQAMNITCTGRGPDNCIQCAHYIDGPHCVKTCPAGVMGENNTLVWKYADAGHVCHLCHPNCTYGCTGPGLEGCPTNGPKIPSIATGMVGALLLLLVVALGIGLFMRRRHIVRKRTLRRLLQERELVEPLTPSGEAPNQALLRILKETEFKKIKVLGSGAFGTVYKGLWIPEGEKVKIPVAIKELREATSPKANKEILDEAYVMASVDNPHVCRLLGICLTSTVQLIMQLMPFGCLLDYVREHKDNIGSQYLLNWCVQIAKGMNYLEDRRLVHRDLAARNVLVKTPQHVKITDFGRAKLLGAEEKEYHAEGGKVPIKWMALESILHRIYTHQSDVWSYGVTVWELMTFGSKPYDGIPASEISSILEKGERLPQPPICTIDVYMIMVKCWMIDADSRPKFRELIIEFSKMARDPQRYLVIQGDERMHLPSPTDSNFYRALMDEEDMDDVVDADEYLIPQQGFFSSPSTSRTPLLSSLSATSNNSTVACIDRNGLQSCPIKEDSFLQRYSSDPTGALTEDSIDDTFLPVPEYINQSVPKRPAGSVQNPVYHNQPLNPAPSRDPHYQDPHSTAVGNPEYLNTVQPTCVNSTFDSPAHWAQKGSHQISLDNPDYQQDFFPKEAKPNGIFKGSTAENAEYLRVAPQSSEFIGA
T6 sequence (P00533 25-1210 T790M/C797S/L858R): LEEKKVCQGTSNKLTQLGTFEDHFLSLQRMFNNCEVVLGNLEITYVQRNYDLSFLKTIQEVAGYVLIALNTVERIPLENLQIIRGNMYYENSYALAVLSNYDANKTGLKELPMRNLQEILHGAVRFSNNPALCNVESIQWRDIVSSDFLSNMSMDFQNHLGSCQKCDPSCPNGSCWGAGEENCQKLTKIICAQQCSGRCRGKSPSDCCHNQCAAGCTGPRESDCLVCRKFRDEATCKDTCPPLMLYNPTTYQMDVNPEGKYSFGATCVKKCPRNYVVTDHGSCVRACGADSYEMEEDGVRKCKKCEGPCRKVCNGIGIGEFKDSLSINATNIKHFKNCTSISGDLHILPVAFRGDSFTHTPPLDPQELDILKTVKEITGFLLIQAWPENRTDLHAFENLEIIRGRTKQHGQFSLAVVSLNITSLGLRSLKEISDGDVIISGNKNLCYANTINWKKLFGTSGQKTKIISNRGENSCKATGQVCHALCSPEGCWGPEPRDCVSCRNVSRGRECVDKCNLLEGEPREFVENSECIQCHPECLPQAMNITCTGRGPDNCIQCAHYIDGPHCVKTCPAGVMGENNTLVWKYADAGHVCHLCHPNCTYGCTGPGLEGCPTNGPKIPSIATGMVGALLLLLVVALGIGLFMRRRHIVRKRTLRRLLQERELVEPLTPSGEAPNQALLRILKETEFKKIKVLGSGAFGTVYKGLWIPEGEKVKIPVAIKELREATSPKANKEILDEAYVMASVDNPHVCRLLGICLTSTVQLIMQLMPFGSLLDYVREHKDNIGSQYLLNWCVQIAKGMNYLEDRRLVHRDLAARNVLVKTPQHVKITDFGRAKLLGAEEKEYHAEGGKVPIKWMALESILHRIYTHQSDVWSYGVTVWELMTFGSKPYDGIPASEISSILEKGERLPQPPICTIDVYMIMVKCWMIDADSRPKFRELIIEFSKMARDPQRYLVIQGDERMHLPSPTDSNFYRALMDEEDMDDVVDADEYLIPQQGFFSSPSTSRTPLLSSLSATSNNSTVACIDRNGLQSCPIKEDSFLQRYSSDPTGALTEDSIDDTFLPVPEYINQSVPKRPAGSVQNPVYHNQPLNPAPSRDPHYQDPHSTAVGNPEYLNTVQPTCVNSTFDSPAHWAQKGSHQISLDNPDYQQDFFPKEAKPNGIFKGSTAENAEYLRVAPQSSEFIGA
T8 sequence (P00533 with tags, fused parts or gaps DEL746-750/C797S limits assumed): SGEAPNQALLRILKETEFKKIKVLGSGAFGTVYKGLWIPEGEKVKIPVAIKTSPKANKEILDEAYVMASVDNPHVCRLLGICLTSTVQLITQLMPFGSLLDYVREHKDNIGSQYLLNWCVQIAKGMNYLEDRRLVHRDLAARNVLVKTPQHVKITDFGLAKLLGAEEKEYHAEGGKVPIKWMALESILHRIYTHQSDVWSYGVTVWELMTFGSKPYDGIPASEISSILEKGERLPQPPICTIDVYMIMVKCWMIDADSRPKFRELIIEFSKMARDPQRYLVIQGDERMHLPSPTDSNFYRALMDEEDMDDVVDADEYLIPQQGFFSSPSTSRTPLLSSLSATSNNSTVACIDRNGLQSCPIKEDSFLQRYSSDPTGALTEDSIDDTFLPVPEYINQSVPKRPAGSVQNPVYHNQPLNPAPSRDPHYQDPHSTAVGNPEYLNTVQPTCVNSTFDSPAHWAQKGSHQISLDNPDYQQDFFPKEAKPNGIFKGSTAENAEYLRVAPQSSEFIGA
T2 sequence (P00533 25-1210 L858R): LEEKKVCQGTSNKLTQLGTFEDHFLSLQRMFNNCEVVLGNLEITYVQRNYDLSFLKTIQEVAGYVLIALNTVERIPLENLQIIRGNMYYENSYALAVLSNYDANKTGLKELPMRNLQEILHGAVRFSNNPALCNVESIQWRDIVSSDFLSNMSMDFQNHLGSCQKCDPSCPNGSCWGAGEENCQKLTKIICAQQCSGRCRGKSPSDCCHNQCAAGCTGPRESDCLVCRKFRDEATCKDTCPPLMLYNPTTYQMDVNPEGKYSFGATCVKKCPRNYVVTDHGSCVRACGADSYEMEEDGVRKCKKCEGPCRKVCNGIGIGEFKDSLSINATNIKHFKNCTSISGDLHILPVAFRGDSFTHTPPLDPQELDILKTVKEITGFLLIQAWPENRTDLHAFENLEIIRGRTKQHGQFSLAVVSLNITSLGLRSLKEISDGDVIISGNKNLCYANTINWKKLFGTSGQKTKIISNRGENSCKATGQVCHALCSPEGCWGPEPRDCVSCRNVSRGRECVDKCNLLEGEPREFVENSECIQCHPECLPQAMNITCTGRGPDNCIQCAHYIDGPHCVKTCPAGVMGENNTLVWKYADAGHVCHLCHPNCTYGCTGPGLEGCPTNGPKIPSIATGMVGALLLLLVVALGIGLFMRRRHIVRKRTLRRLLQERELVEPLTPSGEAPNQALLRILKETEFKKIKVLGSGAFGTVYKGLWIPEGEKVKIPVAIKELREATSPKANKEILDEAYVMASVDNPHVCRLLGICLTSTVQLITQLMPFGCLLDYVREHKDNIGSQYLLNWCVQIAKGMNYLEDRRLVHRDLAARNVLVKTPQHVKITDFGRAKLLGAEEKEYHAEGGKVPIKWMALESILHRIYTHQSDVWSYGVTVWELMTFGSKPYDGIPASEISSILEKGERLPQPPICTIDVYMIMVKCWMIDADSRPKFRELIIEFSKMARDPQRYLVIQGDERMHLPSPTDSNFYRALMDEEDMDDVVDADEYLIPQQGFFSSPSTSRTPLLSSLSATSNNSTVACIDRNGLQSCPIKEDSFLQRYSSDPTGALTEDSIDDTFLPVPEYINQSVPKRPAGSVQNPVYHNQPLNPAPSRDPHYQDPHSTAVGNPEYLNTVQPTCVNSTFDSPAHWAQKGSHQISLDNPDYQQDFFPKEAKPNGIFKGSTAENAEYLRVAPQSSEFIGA

SMILES | IC50 (EGFR wild type) | IC50 (EGFR L858R) | IC50 (EGFR L858R/T790M) | IC50 (EGFR Exon19Del) | IC50 (EGFR Exon19Del/T790M) | IC50 (EGFR[T790M/C797S/L858R]) | IC50 [1] | IC50 (EGFR (d746-750 C797S)) | IC50 (EGFR (C797S L858R)) | GI50 [2, 3] | GI50 [2, 4] | GI50 [2, 5] | GI50 [2, 6] | GI50 [2, 7] | GI50 [2, 8] | GI50 [2, 9] | GI50 (PC-9) | GI50 (A-431; A-431 cells) | GI50 [2, 10] | GI50 (A-431; [17]) | other results
Cn1ncc2c1OCCN1CC3CCC(C3)(C1)n1c(nc3ccc(N4CCOCC4)cc31)NC(=O)c1cc-2c(=O)n(C)c1 (stereo not drawn) [Example A62] | 2040 nM | 144 nM | 7.6 nM | 9.6 nM | 6.2 nM | 7.3 nM | 6.3 nM | 3.8 nM | 63 nM | 0.66 nM | 5.3 nM | 10 nM | 9.2 nM | 9.2 nM | 4.4 nM | 6.1 nM | 4.9 nM | 2370 nM | – | – | –
CCC1CCCOc2c(cnn2C)-c2cc(cn(C)c2=O)C(=O)Nc2nc3ccc(N4CCN(C)CC4)cc3n2C1 (single isomer, unassigned) [Example A16B, 11-Ethyl-5,26-dimethyl-16-(4-methylpiperazin-1-yl)-7-oxa-4,5,13,20,22,26-hexaazapentacyclo[22.3.1.0^{2,6}.0^{13,21}.0^{14,19}]octacosa-1(28),2(6),3,14,16,18,20,24-octaene-23,27-dione] | 288 nM | 28 nM | 22 nM | 5.5 nM | 12 nM | 14 nM | 10 nM | 3.2 nM | 16 nM | 5.2 nM | 24 nM | 21 nM | 19 nM | 17 nM | 53 nM | 29 nM | 73 nM | 664 nM | – | – | –
C[C@@H]1CCCOc2c(cnn2C)-c2cc(cn(C)c2=O)C(=O)Nc2nc3ccc(N4CCC5(CC4)CCN5C)cc3n2C1 [Example A52] | 54 nM | 6.3 nM | 6.6 nM | 1.3 nM | 3.5 nM | 3.9 nM | 3.4 nM | 1.4 nM | 4.7 nM | – | – | – | – | – | – | – | – | – | 1.3 nM | 480 nM | GI50 [2, 11]: 6.3 nM; GI50 [2, 12]: 8.1 nM; GI50 [2, 13]: 8.4 nM; GI50 [2, 14]: 9.6 nM; GI50 [2, 15]: 13.1 nM; GI50 [2, 16]: 9.6 nM; GI50 (PC-9; Homo sapiens, PC-9, 72 h): 15.4 nM
CN(C)[C@H]1CCN(c2ccc3nc4n(c3c2)C23CCC(CN(CCOc5c(cnn5C)-c5cc(cn(C)c5=O)C(=O)N4)C2)C3)C1 (single isomer, unassigned) [Example A66B] | 62 nM | 7.9 nM | 2.6 nM | 1.9 nM | 2.8 nM | 3.2 nM | 2.9 nM | 1.7 nM | 8.1 nM | 0.67 nM | 2.1 nM | 2.4 nM | 3.6 nM | 2.2 nM | 11 nM | 1.9 nM | 6.1 nM | – | – | 815 nM | –
CN1CC2(C1)CN(c1ccc3nc4n(c3c1)C13CCC(CN(CCOc5c(cnn5C)-c5cc(cn(C)c5=O)C(=O)N4)C1)C3)C2 (single isomer, unassigned) [Example A92A] | > 5000 nM | 1150 nM | > 5000 nM | 573 nM | > 5000 nM | > 5000 nM | 3960 nM | 449 nM | 2790 nM | 102 nM | 112 nM | 113 nM | 122 nM | 152 nM | 310 nM | 80 nM | 522 nM | 2100 nM | – | – | –
C[C@@H]1CCCOc2c(cnn2C)-c2cc(cn(C)c2=O)C(=O)Nc2nc3ccc4c(c3n2C1)CCNC4 [Example A102, (11R)-5,11,30-Trimethyl-7-oxa-4,5,13,18,24,26,30-heptaazahexacyclo[26.3.1.0^{2,6}.0^{13,25}.0^{14,23}.0^{15,20}]dotriaconta-1(32),2(6),3,14,20,22,24,28-octaene-27,31-dione] | > 5000 nM | 414 nM | 195 nM | 18 nM | 5.7 nM | 32 nM | 3.4 nM | 12 nM | 167 nM | – | – | – | – | – | – | – | – | – | 12 nM | 2910 nM | GI50 [2, 11]: 31 nM; GI50 [2, 12]: 79 nM; GI50 [2, 13]: 61 nM; GI50 [2, 14]: 37 nM; GI50 [2, 15]: 307 nM; GI50 [2, 16]: 59 nM; GI50 (PC-9; Homo sapiens, PC-9, 72 h): 115 nM
